From a melting point compilation (Tetko et al.; mined from patent text by program, amines drawn as free bases though some values may be those of a salt) come the findings set out here.

`Cc1ccc(S(=O)(=O)OC[C@H]2COc3cc(F)c4c(c3O2)CC(=O)N4)cc1` showed a melting point of 205 to 206 °C.

`N#Cc1nc(-c2ccccc2)c[nH]1` displayed a melting point of 151 to 153 °C.

`COC(=O)CCc1cc2cc(F)c(Cl)cc2[nH]1` registered a melting point of 138 to 139 °C.

Regarding `COc1cc(CCCC(O)C(=O)OC(C)C)ccc1OCc1nc(-c2ccco2)oc1C` (configuration not stated), the melting point lay within 75 to 76 °C.

`CCC(CC)c1ccc(Cl)c2nc3n(c12)CCCCN3c1ccc(C(F)(F)F)cc1Br` yielded a melting point of 158 to 160 °C.

`COc1ccc(C(=C(c2ccc(OC)cc2)C(F)(F)F)c2ccc(F)cc2)cc1`: the melting point lay within 75 to 77 °C.

For `NS(=O)(=O)CC(=O)c1ccccc1`, the melting point is 97 to 99 °C.

The molecule `CC(C)(C)c1cc(-c2nc(CC(=O)O)co2)cc(C(C)(C)C)c1O` gave a melting point of 166 to 168 °C.

`CC(=O)NCCOc1cc(N)c(Cl)cc1C(=O)NCCN(C)C` registered a melting point of 143 to 145 °C.

Consider `CC1=CC(C)(C)Nc2cc3oc(=O)cc(C)c3cc21`, for which the melting point lay within 270 to 274 °C.

In the case of `NC(=O)c1cnc2c(F)c(F)ccc2c1`, the melting point was 250 °C.

The molecule `CCCN(CCC)C(=O)CN(C(=O)CN1C(=O)c2ccccc2C1=O)c1ccccc1` registered a melting point of 130 °C.

Molecule `O=C(O)Cc1cc(F)ccc1OCCc1ccccc1` came in with a melting point of 99 to 101 °C.

`CCOP(=O)(OCC)c1c(C)c2c(c(C)c1-c1c(OC)ccc3ccccc13)COC2` yielded a melting point of 77.3 to 78.9 °C.

Consider `C[C@H]1CN(c2c(F)cc3c(=O)c(C(=O)O)cn(CCF)c3c2F)C[C@H]1NC(=O)OC(C)(C)C` (relative stereo), for which the melting point fell in the range of 217 to 219 °C.

Molecule `CCOC1CC(n2cc(CC)c(=O)[nH]c2=O)OC1CNC(=O)C(C)Oc1ccc(Cl)cc1Cl` (mixture of isomers) returned a melting point of 121 to 124 °C.

Regarding `NC(=O)c1ncn2c1CN(C(=O)N1CCOCC1)c1ccccc1-2`, the melting point is 220 to 221 °C.

On to `Cc1ccc2nc3c(nc2c1)SC(C#N)=C(C#N)S3`, for which the melting point was 213 to 215 °C.

`Cc1ccc2c(c1)c(O)c(C(=O)NC1CCCCC1)c(=O)n2Cc1ccc(F)cc1` gave a melting point of 156 °C.

On to `CSc1nc(N)c(C=O)s1`, for which the melting point was in the range of 159 to 162 °C.

Molecule `CN(Cc1cccc2c1CN(C1CCC(=O)NC1=O)C2=O)C(=O)c1ccc(Cl)c(Cl)c1` (configuration not stated) registered a melting point of 228 to 230 °C.

Consider `Cc1ccc(C)n1CC(=O)N=C(N)N`, for which the melting point fell in the range of 198 to 200 °C.

Take `CCOC(=O)Cn1c(C)cnc(NCC(F)(F)c2ccccc2)c1=O`: the melting point lay within 106 to 110 °C.

`C#CCOc1cc(-c2ncnc(C(Cl)Cl)c2Cl)c(F)cc1Cl` returned a melting point of 86 to 88 °C.

Regarding `O=C1NC2(C(=O)O)CC3CC1C2C3` (configuration not stated), the melting point lay within 298 to 300 °C.

For `O=C(O)c1cc2ccc(OCc3ccccc3)cc2o1`, the melting point fell in the range of 199 to 201 °C.

For `CC(C)n1cc(Cc2cc3cccc(-c4cccc(C(=O)NCCO)c4)c3s2)ccc1=O`, the melting point lay in the range of 178 to 183 °C.

`CCCOc1cc(C)ccc1C1=NC(=O)C2=NC=NC2=N1` showed a melting point of 323 to 325 °C.

Regarding `CCCn1cc(Cc2ccc(C(=O)OC)cc2OC)c2cc(C=CCC(=O)N(C)C)ccc21`, the melting point was 122 to 124 °C.

`COc1ccc(O)c2c(C)c(C)[nH]c12` displayed a melting point of 164 °C.

On to `O=C(CCCCC1(C(=O)O)CC1)CCCCC1(C(=O)O)CC1`, for which the melting point is 132 to 134 °C.

`O=C(O)COCCN(C1CC1)S(=O)(=O)c1ccccc1Cl` came in with a melting point of 115 °C.

Take `Cc1cc2c(c(C)c1Br)C(c1ccc(C(C)C)cc1)CO2` (configuration not stated): the melting point lay in the range of 90 to 91 °C.

`CCOc1cc(C=[N+]([O-])C2CCC2)ccc1OC` displayed a melting point of 113 °C.

`COP(=O)(Cc1ccc(NC(=O)[C@H]2Cc3cc4c(cc3C(=O)[C@H](C)S2)OCO4)cc1)OC` had a melting point of 198 to 199 °C.

In the case of `O=C(O)CCNc1cc(C(c2cc(F)ccc2F)S(=O)(=O)c2ccc(Cl)cc2)c(Cl)cn1` (configuration not stated), the melting point lay within 200 to 205 °C.

In the case of `O=CNc1nc(C(=NOC(=O)C(Cl)Cl)C(=O)O)ns1`, the melting point stood at 123 °C.

`CCOC(=O)C1=Cc2cc(-c3ccc(CC)cc3)ccc2OCC1` had a melting point of 81 to 83 °C.

The molecule `CN(C)CCCn1c2c(c3ccccc31)CCS(=O)(=O)CCC2` registered a melting point of 119 to 120 °C.

`O=C(NC1CNCCn2c1nc(-c1ccncn1)cc2=O)c1ccccn1` (racemic) registered a melting point of 256 to 258 °C.

For the molecule `COc1ccc(CNn2c(=O)ccc3ccc(N4CCC[C@H]4CO)nc32)cc1Cl`, the melting point was in the range of 131 to 134 °C.

Molecule `Cc1nccc(-c2ccccc2)c1CC[C@H]1C[C@H](O)CC(=O)O1` (relative stereo) displayed a melting point of 107 to 108 °C.

Regarding `CCOC(=O)C1=C(C)N=C(SCc2ccc(OC)cc2)N(C(=O)OCC)C1c1cccc(C#N)c1` (configuration not stated), the melting point is 85 to 87 °C.

For `OC12CCCCOC1C(OCc1ccccc1)C(OCc1ccccc1)C(OCc1ccccc1)C2OCc1ccccc1` (configuration not stated), the melting point was determined as 106 °C.

With `O=CN(Cc1ccccc1)Cc1ccccc1`, the melting point fell in the range of 53 to 54.5 °C.

Regarding `CCCCCSc1cccc(-c2nc(=O)c3ccccc3s2)n1`, the melting point was determined as 105 °C.

`COc1cccc(CC(=O)O)c1OCCCc1cn(-c2ccc(NC(=O)C(C)C)cn2)nc1C(C)C` displayed a melting point of 122 to 123 °C.

The molecule `CC1(C=C(Cl)Cl)CN(C(=O)Nc2ccc(OC(F)(F)F)cc2)N=C1c1ccc(Cl)cc1` (configuration not stated) returned a melting point of 138 to 141 °C.

`NP(N)(=S)NC1CCCCC1`: the melting point lay within 148 to 150 °C.

As for `CCc1noc(-c2cn(-c3c(OCc4ccccc4)cccc3OCc3ccccc3)cn2)n1`, the melting point was in the range of 149 to 150 °C.

For the molecule `COc1ccc(C2Sc3c(ccc4ccccc34)N(CCN(C)C)C(=O)C2OC(=O)c2ccccc2O)cc1` (configuration not stated), the melting point is 150 to 151 °C.

Regarding `NS(=O)(=O)c1ccc(-n2nc(C(F)(F)F)cc2-c2ccc([N+](=O)[O-])cc2)cc1`, the melting point lay in the range of 173 to 175 °C.

In the case of `Cc1cccc(-c2cc(=O)c(C)c(-c3ccccc3)n2-c2ccccc2F)c1`, the melting point is 211 to 214 °C.

`CNC(=S)C1=CC(CF)(CF)Oc2ccc(C(F)(F)F)cc21` came in with a melting point of 145 to 147 °C.

Molecule `CC(CCN(C)C1CCC(c2ccc3[nH]c(=O)oc3c2)CC1)c1ccccc1` (configuration not stated) came in with a melting point of 61 to 70 °C.

Regarding `c1ccc(-c2nsc(N3CCN(c4ccccn4)CC3)n2)cc1`, the melting point was 137 to 138 °C.

Regarding `OCCCc1cn(-c2ccc(C(F)(F)F)cn2)nc1OCc1ccccc1`, the melting point is 79 to 81 °C.

As for `CC(C)=CCOc1ccc2c(=O)c(C)c(-c3ccccc3)oc2c1C(=O)C=Cc1cccs1`, the melting point was 158 to 160 °C.

Take `O=[N+]([O-])c1ccc(S(=O)(=O)Nc2cccnc2Nc2ccccc2)cc1`: the melting point fell in the range of 191 to 192 °C.

`CCCCCCCCCCCCC1(Cc2cc(N=Nc3ccc([N+](=O)[O-])cc3[N+](=O)[O-])ccc2O)COCCOCC(C)(C)COCCOC1`: the melting point fell in the range of 64 to 65 °C.

`O=C(O)CCC(=O)c1ccc(NC(=O)C2(Cl)CC2)cc1`: the melting point was 178 to 179 °C.

For `Cc1ccc(S(=O)(=O)OCC2Cn3c(nc4c(C)cccc43)-c3cccc(Cl)c3O2)cc1` (configuration not stated), the melting point is 168 to 169 °C.

As a reminder, the melting point is the temperature of the solid-liquid transition.
